“And” between values parts separate entries of the source, which are not always exact repeats. Identical values can stand only once.
System: 227483-062-R1-J1-PDC complex spheroids with HUVEC/MSC, viability
Assay: Anticancer human tumor 227483-062-R1-J1-PDC patient-derived pancreatic carcinoma cell line growth inhibition [CLK]
Conditions: for viability, T/C: stronger effect = lower value
Procedure, shortened: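 Multi-cell-type spheroids combined patient-derived tumor cells with HUVEC endothelial cells and human mesenchymal stem cells. Paired agents were dosed in half-log steps down from about clinical Cmax, or from 10 microM where Cmax was unknown.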

[1] = curve of first compound, second compound 0.0316 µM
[2] = curve of first compound, second compound 0.1 µM
[3] = curve of first compound, second compound 0.316 µM
[4] = curve of first compound, second compound 1 µM
[5] = curve of first compound, second compound 3.16 µM
[6] = curve of first compound, second compound 10 µM
[7] = second compound 0.0316 µM, first compound 0.0316 µM
[8] = second compound 0.0316 µM, first compound 0.1 µM
[9] = second compound 0.0316 µM, first compound 0.316 µM
[10] = second compound 0.0316 µM, first compound 1 µM
[11] = second compound 0.0316 µM, first compound 3.16 µM
[12] = second compound 0.0316 µM, first compound 10 µM
[13] = second compound 0.1 µM, first compound 0.0316 µM
[14] = second compound 0.1 µM, first compound 0.1 µM
[15] = second compound 0.1 µM, first compound 0.316 µM
[16] = second compound 0.1 µM, first compound 1 µM
[17] = second compound 0.1 µM, first compound 3.16 µM
[18] = second compound 0.1 µM, first compound 10 µM
[19] = second compound 0.316 µM, first compound 0.0316 µM
[20] = second compound 0.316 µM, first compound 0.1 µM
[21] = second compound 0.316 µM, first compound 0.316 µM
[22] = second compound 0.316 µM, first compound 1 µM
[23] = second compound 0.316 µM, first compound 3.16 µM
[24] = second compound 0.316 µM, first compound 10 µM
[25] = second compound 1 µM, first compound 0.0316 µM
[26] = second compound 1 µM, first compound 0.1 µM
[27] = second compound 1 µM, first compound 0.316 µM
[28] = second compound 1 µM, first compound 1 µM
[29] = second compound 1 µM, first compound 3.16 µM
[30] = second compound 1 µM, first compound 10 µM
[31] = second compound 3.16 µM, first compound 0.0316 µM
[32] = second compound 3.16 µM, first compound 0.1 µM
[33] = second compound 3.16 µM, first compound 0.316 µM
[34] = second compound 3.16 µM, first compound 1 µM
[35] = second compound 3.16 µM, first compound 3.16 µM
[36] = second compound 3.16 µM, first compound 10 µM
[37] = second compound 10 µM, first compound 0.0316 µM
[38] = second compound 10 µM, first compound 0.1 µM
[39] = second compound 10 µM, first compound 0.316 µM
[40] = second compound 10 µM, first compound 1 µM
[41] = second compound 10 µM, first compound 3.16 µM
[42] = second compound 10 µM, first compound 10 µM
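Further: spheroids exposed to compounds for seven days before readout.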
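Wherever viability, T/C is given: percent of DMSO vehicle control luminescence as 100% viability.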

CC(CO)NC(=O)c1cc(-c2ccc(Cl)cc2)nn(-c2cnn(C)c2)c1=O (stereo not drawn) + CN1CCN(c2cc(C(=O)Nc3cc4cc(-c5cnn(C)c5)ccc4cn3)ccn2)CC1
IC50 [1]: > 10000 nM
IC50 [2]: > 10000 nM
IC50 [3]: < 31.6 nM
IC50 [4]: < 31.6 nM
IC50 [5]: < 31.6 nM
IC50 [6]: < 31.6 nM
viability, T/C [7]: 88.9%
viability, T/C [8]: 89.1%
viability, T/C [9]: 98.5%
viability, T/C [10]: 94%
viability, T/C [11]: 94.7%
viability, T/C [12]: 82.4%
viability, T/C [13]: 65.2%
viability, T/C [14]: 61.3%
viability, T/C [15]: 66.4%
viability, T/C [16]: 69%
viability, T/C [17]: 63.2%
viability, T/C [18]: 65.4%
viability, T/C [19]: 6.17%
viability, T/C [20]: 7.14%
viability, T/C [21]: 9.66%
viability, T/C [22]: 6.91%
viability, T/C [23]: 8.13%
viability, T/C [24]: 5.79%
viability, T/C [25]: 2.97%
viability, T/C [26]: 2.61%
viability, T/C [27]: 3.05%
viability, T/C [28]: 3.03%
viability, T/C [29]: 1.78%
viability, T/C [30]: 1.92%
viability, T/C [31]: 4.36%
viability, T/C [32]: 4.28%
viability, T/C [33]: 3.59%
viability, T/C [34]: 2.83%
viability, T/C [35]: 3.7%
viability, T/C [36]: 3.41%
viability, T/C [37]: 4.97%
viability, T/C [38]: 2.72%
viability, T/C [39]: 2.16%
viability, T/C [40]: 2.15%
viability, T/C [41]: 2.52%
viability, T/C [42]: 3%

CCN1CCN(Cc2ccc(Nc3ncc(F)c(-c4cc(F)c5nc(C)n(C(C)C)c5c4)n3)nc2)CC1
viability, T/C (compound 0.00316 µM): 93.6% and 83.6%
viability, T/C (compound 0.01 µM): 110% and 94.8%
viability, T/C (compound 0.0316 µM): 92.8% and 79.4%
viability, T/C (compound 0.1 µM): 98.2% and 76.2%
viability, T/C (compound 0.316 µM): 95.1% and 73.4%
viability, T/C (compound 1 µM): 88.3% and 82%
IC50 (curve of compound): > 1000 nM

COc1ccc([C@@H](O)c2cc(-c3ncnc4cc(N5CCOCC5)ccc34)c(F)cc2Cl)nn1 + CNC(=O)c1ccc(Nc2nc(OC3CCCC3)c3c(-c4ccc5nc(C)oc5c4)c[nH]c3n2)c(OC)c1
IC50 [1]: > 10000 nM
IC50 [2]: > 10000 nM
IC50 [3]: > 10000 nM
IC50 [4]: 750 nM
IC50 [5]: < 31.6 nM
IC50 [6]: < 31.6 nM
viability, T/C [7]: 94.6%
viability, T/C [8]: 85.9%
viability, T/C [9]: 108%
viability, T/C [10]: 94.5%
viability, T/C [11]: 73.1%
viability, T/C [12]: 59.8%
viability, T/C [13]: 98.6%
viability, T/C [14]: 86.8%
viability, T/C [15]: 76.7%
viability, T/C [16]: 75.5%
viability, T/C [17]: 58.5%
viability, T/C [18]: 53.5%
viability, T/C [19]: 86.2%
viability, T/C [20]: 83.1%
viability, T/C [21]: 72.1%
viability, T/C [22]: 56.5%
viability, T/C [23]: 63.5%
viability, T/C [24]: 53.7%
viability, T/C [25]: 68.1%
viability, T/C [26]: 64.3%
viability, T/C [27]: 62.8%
viability, T/C [28]: 42.5%
viability, T/C [29]: 48%
viability, T/C [30]: 46.7%
viability, T/C [31]: 42%
viability, T/C [32]: 41.5%
viability, T/C [33]: 42.1%
viability, T/C [34]: 45.7%
viability, T/C [35]: 48.3%
viability, T/C [36]: 26.2%
viability, T/C [37]: 36.1%
viability, T/C [38]: 38.2%
viability, T/C [39]: 31.9%
viability, T/C [40]: 39%
viability, T/C [41]: 38.6%
viability, T/C [42]: 27.9%

CC1(C)CCC(CN2CCN(c3ccc(C(=O)NS(=O)(=O)c4ccc(NCC5CCOCC5)c([N+](=O)[O-])c4)c(Oc4cnc5[nH]ccc5c4)c3)CC2)=C(c2ccc(Cl)cc2)C1 + CN1CCN(c2cc(C(=O)Nc3cc4cc(-c5cnn(C)c5)ccc4cn3)ccn2)CC1
IC50 [1]: 5670 nM
IC50 [2]: 4230 nM
IC50 [3]: < 31.6 nM
IC50 [4]: < 31.6 nM
IC50 [5]: < 31.6 nM
IC50 [6]: < 31.6 nM
viability, T/C [7]: 93.9%
viability, T/C [8]: 96.5%
viability, T/C [9]: 110%
viability, T/C [10]: 110%
viability, T/C [11]: 89.8%
viability, T/C [12]: 11.5%
viability, T/C [13]: 58%
viability, T/C [14]: 58.1%
viability, T/C [15]: 63.1%
viability, T/C [16]: 62.7%
viability, T/C [17]: 81.3%
viability, T/C [18]: 6.59%
viability, T/C [19]: 5.04%
viability, T/C [20]: 6.53%
viability, T/C [21]: 5.51%
viability, T/C [22]: 5.88%
viability, T/C [23]: 6.54%
viability, T/C [24]: 1.59%
viability, T/C [25]: 2.1%
viability, T/C [26]: 2.74%
viability, T/C [27]: 2.88%
viability, T/C [28]: 2.08%
viability, T/C [29]: 1.44%
viability, T/C [30]: 0.36%
viability, T/C [31]: 3.39%
viability, T/C [32]: 4.13%
viability, T/C [33]: 2.75%
viability, T/C [34]: 2.22%
viability, T/C [35]: 2.43%
viability, T/C [36]: 2.73%
viability, T/C [37]: 2.85%
viability, T/C [38]: 2.4%
viability, T/C [39]: 1.5%
viability, T/C [40]: 4.14%
viability, T/C [41]: 1.34%
viability, T/C [42]: 0.39%
